Legend:
[1] = tested on: NMDA excitotoxicity or experimental animal models for epilepsy, cerebral ischemia; details: literature; cited from earlier work
[2] = tested on: primary rat hippocampal cultures; experiment: Inhibition of kainic acid neurotoxicity (LDH release) in primary rat hippocampal cultures; type: cell-based; details: Hippocampal neuron; 300 μM kainic acid, 24 hours, primary rat hippocampal neurons, lactate dehydrogenase release
Method: 1) Inhibition of kainic acid neurotoxicity
The effect of the compound of the present invention for inhibiting kainic acid neurotoxicity was studied using primary rat hippocampal cultures.
(1) Incubation conditions
The hippocampus was dissected from a brain of the 18 to 20-day-old fetal rat and was subjected to enzyme treatment with papain and DNase I to disperse the cells. The cells so obtained were suspended in MEM containing 10% serum and plated on poly-L-lysine coated 48-well plates at a density of 4×10^5 cells/cm^2. Twenty four hours later, the medium was replaced by a serum-free medium. The medium was changed twice a week. The cells which were cultured for at least 6 days were provided for the following test.
(2) Inhibition against kainic acid neurotoxicity
Neurotoxicity was assessed by an activity of lactate dehydrogenase released into the culture medium from destroyed cells. As a control, neurons which were exposed to a serum-free medium containing 300 μM kainic acid for 24 hours were used. Each compound, together with 300 μM kainic acid, was allowed to act on the neuron for 24 hours and inhibitory action of each compound against kainic acid neurotoxicity was evaluated.

DBA/2 mice = experiment: Audiogenic seizure inhibitory action (anticonvulsant effect) in DBA/2 mice; type: in vivo; details: Mus musculus, ip, 0.75 h; i.p. 45 minutes before sound stimulation (12 kHz, 120 dB); ten male 21 to 28-day-old mice; read-out: Anticonvulsant effect for audiogenic seizure in DBA/2 mice, minimum effective dose
Method: 2) Measurement of audiogenic seizure inhibitory action in DBA/2 mice
The test compound was suspended in a 0.5% methylcellulose solution and the resulting suspension was intraperitoneally administered 45 minutes before the stimulation by the sound. The drug efficacy was evaluated by presence or absence of the appearance of seizure and the minimum effective dose was determined.

[3] = tested on: experimental animal model for cerebral ischemia; details: literature; cited from earlier work
AMPA receptor = details: literature; cited from earlier work
AMPA-induced cell death = details: literature; cited from earlier work

NC(CCCP(=O)(O)O)C(=O)O (centres unmarked) [2-amino-5-phosphonovaleric acid]
protective effect against NMDA excitotoxicity or in experimental animal models for epilepsy, cerebral ischemia, etc. [1]: protective against NMDA excitotoxicity or in experimental animal models for epilepsy, cerebral ischemia, etc.

NC(CCCCCP(=O)(O)O)C(=O)O (centres unmarked) [2-amino-7-phosphonoheptanoic acid]
protective effect against NMDA excitotoxicity or in experimental animal models for epilepsy, cerebral ischemia, etc. [1]: protective against NMDA excitotoxicity or in experimental animal models for epilepsy, cerebral ischemia, etc.

CN(c1ccc(Br)cc1)c1nc(=O)c2cccnc2s1 [16-2), 2-[N-(4-Bromophenyl)-N-methylamino]-4H-pyrido[3,2-e]-1,3-thiazin-4-one]
IC50 [2]: 1 µM | minimal effective dose (DBA/2 mice): 30 mg/kg

CN(c1ccc(Cl)cc1)c1nc(=O)c2cccnc2s1 [Example 64, 2-[N-(4-Chlorophenyl)-N-methylamino]-4H pyrido[3,2-e]-1,3-thiazin-4-one]
IC50 [2]: 1.4 µM | minimal effective dose (DBA/2 mice): 10 mg/kg

Cc1cccc(N(C)c2nc(=O)c3cccnc3s2)c1 [Example 72, 2-[N-Methyl-N-(3-methylphenyl)amino]-4H-pyrido[3,2-e]-1,3-thiazin-4-one]
IC50 [2]: 1.9 µM | minimal effective dose (DBA/2 mice): 30 mg/kg

CC1=NN=C(c2ccc(N)cc2)c2cc3c(cc2C1)OCO3 [GYKI52466]
effect in experimental animal model for cerebral ischemia [3]: effective in an experimental animal model for cerebral ischemia | effect on AMPA receptor desensitization (AMPA receptor): counteracts the inhibition of desensitization by cyclothiazide

NC1CCN(O)C1=O (centres unmarked) [HA-966]
effect in experimental animal model for cerebral ischemia [3]: effective in an experimental animal model for cerebral ischemia

NS(=O)(=O)c1cccc2c1c([N+](=O)[O-])cc1[nH]c(=O)c(=O)[nH]c12 [NBQX]
effect in experimental animal model for cerebral ischemia [3]: effective in the experimental animal model for cerebral ischemia

NS(=O)(=O)c1cc2c(cc1Cl)NC(C1CC3C=CC1C3)NS2(=O)=O (centres unmarked) [cyclothiazide]
effect on AMPA-induced cell death (AMPA-induced cell death): accelerate AMPA-induced cell death | effect on AMPA receptor desensitization (AMPA receptor): desensitization inhibitor
